Measured values as given in patent publication US20150267232A1, “IN VIVO AND IN VITRO CARBENE INSERTION AND NITRENE TRANSFER REACTIONS CATALYZED BY HEME ENZYMES” (California Institute of Technology, priority 2012, published 2015).
Numbering of substitutions follows the chain as printed. Names and notes keep the numbering of the source.

Experiments:
[1] = P450/hemin reactions with azide 5 under anaerobic conditions (C—H amination); format: biochemical
From the text: Benzosultam 6, arylsulfonamide 7 (*), and dimer 12 (#) are defined in FIG. 10. […] For instance, B1SYN (e.g., P450BM3 with 23 amino acid substitutions) catalyzed over 30 TTN for form the benzosultam.
Small-Scale Amination Reactions Under Anaerobic Conditions. […]

[2] = Intramolecular carbene C—H insertion, substrate 4.1a; format: biochemical
[3] = N—H insertion, aniline with ethyl diazo acetate (EDA); format: biochemical; details: for TTn / % Yield: protein 10 uM, EDA 8.5 mM, aniline 20 mM, Na2S2O4 10 mM, 12 h; for % Yield: product 4.3
How it was run: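 Final reactions contained 10 or 20 μM P450BM3 variant, 20 mM aniline, 8.5 mM EDA and 10 mM Na2S2O4 in 0.1 M phosphate pH 8.0 under argon, with MeOH cosolvent. After 12 h at 25° C, products were extracted into cyclohexane and quantified by GC-FID against phenethyl alcohol internal standard and calibration curves from authentic standards, giving yield and TTN.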

[4] = P450BM3 compilation plate screen (GC, cyclopropane peaks); format: biochemical; details: P450BM3 variants
[5] = Whole-cell C—H amination of azide 1; format: cell-based, E. coli BL21(DE3); details: lyophilized cells
[6] = cat. loading 1 mol %, reductant None

For hemin, the “TTN arylsulfonamide 7” value ([1]; 1 mol %, 2 mM NADPH) was 1, the “TTN benzosultam 6” value ([1]; 1 mol %, 2 mM NADPH) was 0 and the “arylsulfonamide 7 (% yield)” value ([1]; 1 mol %, 2 mM NADPH) was “(1) %”. The “TTN arylsulfonamide 7” value ([1]; 1 mol %, 2 mM Na2S2O4) was 5, the “TTN benzosultam 6” value ([1]; 1 mol %, 2 mM Na2S2O4) was 0 and the “arylsulfonamide 7 (% yield)” value ([1]; 1 mol %, 2 mM Na2S2O4) was “(5) %”. For the same molecule, the “TTN arylsulfonamide 7” value ([1]; 1 mol %, 10 mM Na2S2O4) was 58, the “TTN benzosultam 6” value ([1]; 1 mol %, 10 mM Na2S2O4) was 0 and the “arylsulfonamide 7 (% yield)” value ([1]; 1 mol %, 10 mM Na2S2O4) was “(58) %”. For the same molecule, the “TTN arylsulfonamide 7” value ([1]; 10 mol %, 2 mM Na2S2O4) was 1, the “TTN benzosultam 6” value ([1]; 10 mol %, 2 mM Na2S2O4) was 0 and the “arylsulfonamide 7 (% yield)” value ([1]; 10 mol %, 2 mM Na2S2O4) was “(10) %”. For the same molecule, the “TTN arylsulfonamide 7” value ([1]; 10 mol %, 10 mM Na2S2O4) was 6, the “TTN benzosultam 6” value ([1]; 10 mol %, 10 mM Na2S2O4) was 0 and the “arylsulfonamide 7 (% yield)” value ([1]; 10 mol %, 10 mM Na2S2O4) was “(60) %”. For the same molecule, the “TTN arylsulfonamide 7” value [1, 6] was 0, the “TTN benzosultam 6” value [1, 6] was 0 and the Yield % ([2]; 10 mM 4.1a, 5% hemin, 10 mM Na2S2O4, product 4.2a) was 0%. The “lactone formation via C—H bond insertion” value ([2]; substrates 4.1a and 4.1b, 10 μM variant or hemin at 5% catalyst loading, 16 h) was “not catalyzed”, the “ratio of single to double insertion products” value ([3]; 1 mol % hemin) was 3.5 to 1 and the total product yield ([3]; 1 mol % hemin) was 51%.

B1: P450BM3: wild-type cytochrome P450BM3 from Bacillus megaterium (SEQ ID NO: 1) (protein, listed as Bacillus megaterium)
chain: TIKEMPQPKTFGELKNLPLLNTDKPVQALMKIADELGEIFKFEAPGRVTRYLSSQRLIKEACDESRFDKNLSQALKFVRDFAGDGLFTSWTHEKNWKKAHNILLPSFSQQAMKGYHAMMVDIAVQLVQKWERLNADEHIEVPEDMTRLTLDTIGLCGFNYRFNSFYRDQPHPFITSMVRALDEAMNKLQRANPDDPAYDENKRQFQEDIKVMNDLVDKIIADRKASGEQSDDLLTHMLNGKDPETGEPLDDENIRYQIITFLIAGHETTSGLLSFALYFLVKNPHVLQKAAEEAARVLVDPVPSYKQVKQLKYVGMVLNEALRLWPTAPAFSLYAKEDTVLGGEYPLEKGDELMVLIPQLHRDKTIWGDDVEEFRPERFENPSAIPQHAFKPFGNGQRACIGQQFALHEATLVLGMMLKHFDFEDHTNYELDIKETLTLKPEGFVVKAKSKKIPLGGIPSPSTEQSAKKVRKKAENAHNTPLLVLYGSNMGTAEGTARDLADIAMSKGFAPQVATLDSHAGNLPREGAVLIVTASYNGHPPDNAKQFVDWLDQASADEVKGVRYSVFGCGDKNWATTYQKVPAFIDETLAAKGAENIADRGEADASDDFEGTYEEWREHMWSDVAAYFNLDIENSEDNKSTLSLQFVDSAADMPLAKMHGAFSTNVVASKELQQPGSARSTRHLEIELPKEASYQEGDHLGVIPRNYEGIVNRVTARFGLDASQQIRLEAEEEKLAHLPLAKTVSVEELLQYVELQDPVTRTQLRAMAAKTVCPPHKVELEALLEKQAYKEQVLAKRLTMLELLEKYPACEMKFSEFIALLPSIRPRYYSISSSPRVDEKQASITVSVVSGEAWSGYGEYKGIASNYLAELQEGDTITCFISTPQSEFTLPKDPETPLIMVGPGTGVAPFRGFVQARKQLKEQGQSLGEAHLYFGCRSPHEDYLYQEELENAQSEGIITLHTAFSRMPNQPKTYVQHVMEQDGKKLIELLDQGAHFYICGDGSQMAPAVEATLMKSYADVHQVSEADARLWLQQLEEKGRYAKDVWAG
modifications: cytochrome P450NADPH-P-450 reductase precursor, cytochrome P450 (BM3), CYP102A1
For B1, the “ee (cis)” value ([4]; (R,S)-(S,R), chiral β-CDX GC) was 7, the de ([4]; diastereomeric excess = ([cis] − [trans])/([cis] + [trans])) was −81 and the Absolute activity ([4]; sum of the area of the cyclopropane peaks over the area of the internal standard) was 0.00224. The TTn [3] was 17, the “% Yield” value ([3]; listed as BM3-WT) was 1.7% and the “% Yield” value ([3]; listed as WT-BM3) was “trace amounts”.

B2: BM3-T268A: P450BM3 variant: T268A (protein, listed as Bacillus megaterium)
chain: B1 chain with T268A
modifications: cytochrome P450NADPH-P-450 reductase precursor, cytochrome P450 (BM3), CYP102A1
With B2 the TTn [3] was 160 and the “% Yield” value [3] was 16%.

B3: ABC-T268A: P450BM3 variant: T268A, C400S (protein, listed as Bacillus megaterium)
chain: B1 chain with T268A, C400S
modifications: cytochrome P450NADPH-P-450 reductase precursor, cytochrome P450 (BM3), CYP102A1
notes: P450BM3 variant: T268A, C400S
In the case of B3, the TTn [3] is reported as 95 and the “% Yield” value [3] is reported as 9.5%.

B4: ABC-CIS: BM3-CIS + C400S (protein, listed as Bacillus megaterium)
chain: TIKEMPQPKTFGELKNLPLLNTDKPVQALMKIADELGEIFKFEAPGRVTRYLSSQRLIKEACDESRFDKNLSQALKFARDFAGDGLVTSWTHEKNWKKAHNILLPSFSQQAMKGYHAMMVDIAVQLVQKWERLNADEHIEVSEDMTRLTLDTIGLCGFNYRFNSFYRDQPHPFIISMVRALDEVMNKLQRANPDDPAYDENKRQFQEDIKVMNDLVDKIIADRKARGEQSDDLLTQMLNGKDPETGEPLDDGNIRYQIITFLIAGHEATSGLLSFALYFLVKNPHVLQKVAEEAARVLVDPVPSYKQVKQLKYVGMVLNEALRLWPTAPAFSLYAKEDTVLGGEYPLEKGDEVMVLIPQLHRDKTVWGDDVEEFRPERFENPSAIPQHAFKPFGNGQRASIGQQFALHEATLVLGMMLKHFDFEDHTNYELDIKETLTLKPKGFVVKAKSKKIPLGGIPSPSTEQSAKKVRKKAENAHNTPLLVLYGSNMGTAEGTARDLADIAMSKGFAPQVATLDSHAGNLPREGAVLIVTASYNGHPPDNAKQFVDWLDQASADEVKGVRYSVFGCGDKNWATTYQKVPAFIDETLAAKGAENIADRGEADASDDFEGTYEEWREHMWSDVAAYFNLDIENSEDNKSTLSLQFVDSAADMPLAKMHGAFSTNVVASKELQQPGSARSTRHLEIELPKEASYQEGDHLGVIPRNYEGIVNRVTARFGLDASQQIRLEAEEEKLAHLPLAKTVSVEELLQYVELQDPVTRTQLRAMAAKTVCPPHKVELEALLEKQAYKEQVLAKRLTMLELLEKYPACEMKFSEFIALLPSIRPRYYSISSSPRVDEKQASITVSVVSGEAWSGYGEYKGIASNYLAELQEGDTITCFISTPQSEFTLPKDPETPLIMVGPGTGVAPFRGFVQARKQLKEQGQSLGEAHLYFGCRSPHEDYLYQEELENAQSEGIITLHTAFSRMPNQPKTYVQHVMEQDGKKLIELLDQGAHFYICGDGSQMAPAVEATLMKSYADVHQVSEADARLWLQQLEEKGRYAKDVWAG
modifications: cytochrome P450NADPH-P-450 reductase precursor, cytochrome P450 (BM3), CYP102A1
notes: BM3-CIS + C400S
In the case of B4, the TTn [3] is reported as 136, the “% Yield” value [3] is reported as 14% and the “% ee” value [5] is reported as 61%. It also gave a TTN [5] of 750.
